Experimental data taken from patent US12716055B2, “Treatment of disc degenerative disease and stimulation of proteoglycan synthesis by fibroblast conditioned media and formulations thereof” (FIBROBIOLOGICS, INC., priority 2019, dated 2026).

Test system: Neonatal foreskin fibroblasts
Test: EGF production in foreskin fibroblasts cultured with naltrexone and TLR agonists (ELISA)
Type: cell-based
Settings: treatment of fibroblasts with opioid receptor antagonist, 12 hours of culture, 50% confluent
Text: The present example characterizes the use of naltrexone and a TLR agonist to stimulate EGF production in foreskin fibroblasts as an example of a type of fibroblasts.
Neonatal foreskin fibroblasts were obtained from ATCC and cultured in typical DMEM culture media containing 10% fetal calf serum and antibiotics. After 3 days of culture, fibroblasts where plated in 12 well plates and cultured at 50% confluent conditions. Addition of naltrexone (Sigma Aldrich®) and the indicated TLR agonists was performed for 12 hours of culture. Pam3CSK4 was added at a total concentration of 1 ug/ml. LPS was added at 0.5 ug/ml. CpG was added at 0.2 ug/ml. Concentration of EGF was assessed using ELISA (R&D Systems).

For `O=C1CC[C@@]2(O)[C@H]3Cc4ccc(O)c5c4[C@@]2(CCN3CC2CC2)[C@H]1O5` [naltrexone], the “production of growth factors including EGF by fibroblasts” value was “induce production of various growth factors including EGF”.
